Data reported in BigSolDB 2.1.

CS(=O)(=O)c1ccc([C@@H](O)[C@@H](CF)NC(=O)C(Cl)Cl)cc1
solubility (mole fraction)
Details | 283.15 K | 288.15 K | 293.15 K | 298.15 K | 303.15 K | 308.15 K | 313.15 K | 318.15 K | 323.15 K
in 2-ethylhexanol | 0.000183 | 0.000254 | 0.000319 | 0.000383 | 0.000521 | 0.000635 | 0.000813 | 0.00103 | 0.00129
in ethanol | 0.00151 | 0.00196 | 0.00244 | 0.00309 | 0.00369 | 0.00461 | 0.00562 | 0.00702 | 0.00842
in isobutanol | 0.000293 | 0.000385 | 0.000497 | 0.000613 | 0.000819 | 0.00104 | 0.00137 | 0.0017 | 0.00224
in isopentanol | 0.000487 | 0.000586 | 0.000765 | 0.000959 | 0.00123 | 0.00149 | 0.00191 | 0.00238 | 0.00285
in isopropanol | 0.00061 | 0.00076 | 0.00101 | 0.00133 | 0.00169 | 0.00218 | 0.00278 | 0.00363 | 0.00457
in n-butanol | 0.000512 | 0.000648 | 0.000821 | 0.00112 | 0.0014 | 0.00183 | 0.00236 | 0.00302 | 0.00385
in n-propanol | 0.000974 | 0.00125 | 0.00165 | 0.00215 | 0.00269 | 0.00359 | 0.00437 | 0.00563 | 0.00712
in propionic acid | 0.00027 | 0.000347 | 0.000447 | 0.000562 | 0.00073 | 0.000961 | 0.00123 | 0.0016 | 0.00211
